Activity calls are given as the source filed them. No rule for the calls is given here.
Test system: CCRIS mutagenicity, Ames/micronucleus/aberration tests
Test: CCRIS mutagenicity studies
[1] = Test System: AMES SALMONELLA TYPHIMURIUM, Strain/Indicator: TA98, Metabolic Activation: NONE, Method: STANDARD PLATE
[2] = Test System: AMES SALMONELLA TYPHIMURIUM, Strain/Indicator: TA98, Metabolic Activation: RAT, LIVER, S-9, AROCLOR 1254, Method: STANDARD PLATE
[3] = Test System: AMES SALMONELLA TYPHIMURIUM, Strain/Indicator: TA100, Metabolic Activation: NONE, Method: STANDARD PLATE

Measured: mutagenic call

[O-]/[N+](=N\O)c1ccccc1
inactive: Test System: AMES SALMONELLA TYPHIMURIUM, Strain/Indicator: TA98, Metabolic Activation: HAMSTER, LIVER, S-9, AROCLOR 1254, Method: STANDARD PLATE inactive; negative | Test System: AMES SALMONELLA TYPHIMURIUM, Strain/Indicator: TA98, Metabolic Activation: MOUSE, LIVER, S-9, AROCLOR 1254, Method: STANDARD PLATE inactive; negative | Test System: AMES SALMONELLA TYPHIMURIUM, Strain/Indicator: TA98, Metabolic Activation: MOUSE, LIVER, S-9, Method: STANDARD PLATE inactive; negative | [1] inactive; negative | [2] inactive; negative | Test System: AMES SALMONELLA TYPHIMURIUM, Strain/Indicator: TA98, Metabolic Activation: RAT, LIVER, S-9, Method: STANDARD PLATE inactive; negative | Test System: AMES SALMONELLA TYPHIMURIUM, Strain/Indicator: TA100, Metabolic Activation: HAMSTER, LIVER, S-9, AROCLOR 1254, Method: STANDARD PLATE inactive; negative | Test System: AMES SALMONELLA TYPHIMURIUM, Strain/Indicator: TA100, Metabolic Activation: HAMSTER, LIVER, S-9, Method: STANDARD PLATE inactive; negative | Test System: AMES SALMONELLA TYPHIMURIUM, Strain/Indicator: TA100, Metabolic Activation: MOUSE, LIVER, S-9, AROCLOR 1254, Method: STANDARD PLATE inactive; negative | Test System: AMES SALMONELLA TYPHIMURIUM, Strain/Indicator: TA100, Metabolic Activation: MOUSE, LIVER, S-9, Method: STANDARD PLATE inactive; negative | [3] inactive; negative | Test System: AMES SALMONELLA TYPHIMURIUM, Strain/Indicator: TA100, Metabolic Activation: RAT, LIVER, S-9, AROCLOR 1254, Method: STANDARD PLATE inactive; negative | Test System: AMES SALMONELLA TYPHIMURIUM, Strain/Indicator: TA100, Metabolic Activation: RAT, LIVER, S-9, Method: STANDARD PLATE inactive; negative | Test System: AMES SALMONELLA TYPHIMURIUM, Strain/Indicator: TA1535, Metabolic Activation: HAMSTER, LIVER, S-9, AROCLOR 1254, Method: STANDARD PLATE inactive; negative | Test System: AMES SALMONELLA TYPHIMURIUM, Strain/Indicator: TA1535, Metabolic Activation: HAMSTER, LIVER, S-9, Method: STANDARD PLATE inactive; negative | Test System: AMES SALMONELLA TYPHIMURIUM, Strain/Indicator: TA1535, Metabolic Activation: MOUSE, LIVER, S-9, AROCLOR 1254, Method: STANDARD PLATE inactive; negative | Test System: AMES SALMONELLA TYPHIMURIUM, Strain/Indicator: TA1535, Metabolic Activation: MOUSE, LIVER, S-9, Method: STANDARD PLATE inactive; negative | Test System: AMES SALMONELLA TYPHIMURIUM, Strain/Indicator: TA1535, Metabolic Activation: NONE, Method: STANDARD PLATE inactive; negative | Test System: AMES SALMONELLA TYPHIMURIUM, Strain/Indicator: TA1535, Metabolic Activation: RAT, LIVER, S-9, AROCLOR 1254, Method: STANDARD PLATE inactive; negative | Test System: AMES SALMONELLA TYPHIMURIUM, Strain/Indicator: TA1535, Metabolic Activation: RAT, LIVER, S-9, Method: STANDARD PLATE inactive; negative | Test System: AMES SALMONELLA TYPHIMURIUM, Strain/Indicator: TA1537, Metabolic Activation: HAMSTER, LIVER, S-9, AROCLOR 1254, Method: STANDARD PLATE inactive; negative | Test System: AMES SALMONELLA TYPHIMURIUM, Strain/Indicator: TA1537, Metabolic Activation: HAMSTER, LIVER, S-9, Method: STANDARD PLATE inactive; negative | Test System: AMES SALMONELLA TYPHIMURIUM, Strain/Indicator: TA1537, Metabolic Activation: MOUSE, LIVER, S-9, AROCLOR 1254, Method: STANDARD PLATE inactive; negative | Test System: AMES SALMONELLA TYPHIMURIUM, Strain/Indicator: TA1537, Metabolic Activation: MOUSE, LIVER, S-9, Method: STANDARD PLATE inactive; negative | Test System: AMES SALMONELLA TYPHIMURIUM, Strain/Indicator: TA1537, Metabolic Activation: NONE, Method: STANDARD PLATE inactive; negative | Test System: AMES SALMONELLA TYPHIMURIUM, Strain/Indicator: TA1537, Metabolic Activation: RAT, LIVER, S-9, AROCLOR 1254, Method: STANDARD PLATE inactive; negative | Test System: AMES SALMONELLA TYPHIMURIUM, Strain/Indicator: TA1537, Metabolic Activation: RAT, LIVER, S-9, Method: STANDARD PLATE inactive; negative | Test System: AMES SALMONELLA TYPHIMURIUM, Strain/Indicator: TA1538, Metabolic Activation: HAMSTER, LIVER, S-9, AROCLOR 1254, Method: STANDARD PLATE inactive; negative | Test System: AMES SALMONELLA TYPHIMURIUM, Strain/Indicator: TA1538, Metabolic Activation: HAMSTER, LIVER, S-9, Method: STANDARD PLATE inactive; negative | Test System: AMES SALMONELLA TYPHIMURIUM, Strain/Indicator: TA1538, Metabolic Activation: RAT, LIVER, S-9, AROCLOR 1254, Method: STANDARD PLATE inactive; negative | Test System: E. COLI, Strain/Indicator: WP2 UVRA, Metabolic Activation: HAMSTER, LIVER, S-9, Method: STANDARD PLATE inactive; negative | Test System: E. COLI, Strain/Indicator: WP2 UVRA, Metabolic Activation: MOUSE, LIVER, S-9, AROCLOR 1254, Method: STANDARD PLATE inactive; negative | Test System: E. COLI, Strain/Indicator: WP2 UVRA, Metabolic Activation: MOUSE, LIVER, S-9, Method: STANDARD PLATE inactive; negative | Test System: E. COLI, Strain/Indicator: WP2 UVRA, Metabolic Activation: NONE, Method: STANDARD PLATE inactive; negative | Test System: E. COLI, Strain/Indicator: WP2 UVRA, Metabolic Activation: RAT, LIVER, S-9, Method: STANDARD PLATE inactive; negative

CC(=O)Nc1cc2c(cc1OC(=O)c1ccccc1)-c1ccccc1C2
inactive: [2] inactive; negative

CC(C)=CCC/C(C)=C/CO
inactive: [1] inactive; negative | Test System: AMES SALMONELLA TYPHIMURIUM, Strain/Indicator: TA98, Metabolic Activation: S-9, Method: STANDARD PLATE inactive; negative | [3] inactive; negative | Test System: AMES SALMONELLA TYPHIMURIUM, Strain/Indicator: TA100, Metabolic Activation: S-9, Method: STANDARD PLATE inactive; negative

Brc1cc(Br)c(-c2cc(Br)c(Br)cc2Br)cc1Br
inactive: Test System: CHINESE HAMSTER V-79, Strain/Indicator: V-79 (HGPRT)/6-THIOGUANINE, Metabolic Activation: NONE inactive; negative

c1ccc2c(c1)-c1nc3ccccc3c3c1c-2nc1ccccc13
inactive: [1] inactive; negative | Test System: AMES SALMONELLA TYPHIMURIUM, Strain/Indicator: TA98, Metabolic Activation: RAT LIVER S-9, AROCLOR 1254, Method: STANDARD PLATE inactive; negative | Test System: ESCHERICHIA COLI, Strain/Indicator: WP2 UVR A, Metabolic Activation: NONE, Method: STANDARD PLATE inactive; negative | Test System: ESCHERICHIA COLI, Strain/Indicator: WP2 UVR A, Metabolic Activation: RAT LIVER S-9, AROCLOR 1254, Method: STANDARD PLATE inactive; negative

Source: PubChem BioAssay AID1259407 (Chemical Carcinogenesis Research Information System (CCRIS), 2018)
